How the values were obtained:
Type in all cases: cell-based
Dengue = experiment: Activity of Example 1 against non-alphaviruses: Dengue; settings: Dengue virus
BK Polyomavirus = experiment: Activity of Example 1 against non-alphaviruses: BK Polyomavirus; settings: Betapolyomavirus hominis
CHIKV 181/clone25 = experiment: CHIKV cytopathic effect (CPE) protection assay in Vero cells; settings: Chikungunya virus; CHIKV 181/clone25, Vero cells, MOI=0.01, 48 hrs, protection from CPE (crystal violet, absorbance 595nm)
VEEV (ZPC) = experiment: microbe, parasite or virus in culture; settings: Venezuelan equine encephalitis virus
SINV (TR-339) = experiment: organism not typed
MAYV = experiment: Activity of Example 1 against other alphaviruses: MAYV
ONNV (SG-650) = experiment: Activity of Example 1 against other alphaviruses: ONNV
Influenza = experiment: Activity of Example 1 against non-alphaviruses: Influenza
Vaccinia = experiment: Activity of Example 1 against non-alphaviruses: Vaccinia; settings: Orthopoxvirus vaccinia

CN1C(=O)C(CC(=O)NCC2CCCCC2)Sc2ncccc21 (stereo not drawn) [Example 1, N-(cyclohexylmethyl)-2-(1-methyl-2-oxo-2,3-dihydro-1H-pyrido[2,3-b][1,4]thiazin-3-yl)acetamide]
EC50 (Dengue): > 100 µM
EC50 (BK Polyomavirus): > 100 µM
EC50 (CHIKV 181/clone25): < 10 µM
EC50 (VEEV (ZPC)): < 10 µM
EC50 (SINV (TR-339)): > 100 µM
EC50 (MAYV): 10 to 49.9 µM
EC50 (ONNV (SG-650)): < 10 µM
EC50 (Influenza): > 100 µM
EC50 (Vaccinia): > 100 µM
